We go through one compound from article PMC6923382, “Small molecules that inhibit TNF signalling by stabilising an asymmetric form of the trimer” (Nature Communications, 2019).

“And” between values parts separate entries of the source, which are not always exact repeats. Equal entries are not always repeated. “Also recorded” adds a separate entry of the source.

In series [1] the target is T1, TNF (Homo sapiens, UniProt P01375). The series can be described thus: Biacore binding with and without non-ionic detergent. Also noted: stabilise an asymmetrical form of the soluble TNF trimer. Conditions: 0.01% v/v Triton X-100 and 0.025% v/v Tween-80; Biacore T200. The method, then: Experiments to show any effect of addition of non-ionic detergent were performed on a Biacore, with human TNF on the solid phase and compounds in solution phase in the presence and absence of 0.01% v/v Triton X-100 and 0.025% v/v Tween-80.
Three Biacore T200s were treated with sodium hypochlorite to remove any traces of detergent. Each machine was equilibrated in either HBS with no detergent (control), HBS:
Tween-P80 (0.025% v/v) or HBS: Triton X-100 (0.01% v/v). Human TNF was tethered to ~ 2000 RU before equilibration in the equivalent control or detergent buffers plus 1% DMSO. […]
were fitted to a BIAevaluation T200 1:1 algorithm and the fitted data shown. […]
A general note: Surface plasmon resonance follows binding to a sensor surface in real time, without labels.

Series [2] relates to zymosan-induced neutrophil recruitment. The series is described as follows: Zymosan induced neutrophil recruitment in vivo. Conditions: for percent over bar (inhibition of zymosan-induced neutrophil recruitment): Zymosan 1 µg per mouse i.p.; for CD45+ GR-1+ cells/mL in the peritoneal cavity: zymosan, individual mice. Also noted: species or system mouse. Here is the method:
Zymosan (R&D Systems) was administered by intraperitoneal injection at a concentration of 1 µg per mouse in PBS (100 µL). […] Four hours after the zymosan challenge, mice were sacrificed and the peritoneal cavity lavaged with 3 mL of FACS buffer. An aliquot (0.3 mL) of lavage fluid was used to assess the number of CD45^+GR1^+ cells by flow cytometry. Briefly, the cells were treated with ACK lysis buffer, washed and suspended in FACS buffer prior to staining with FITC anti-mouse CD45 and PE anti-mouse GR1 (BD Biosciences). Data are shown as mean ± standard error of the number of CD45^+GR-1^+ cells. Statistical significance (*p < 0.05, **p < 0.01, ***p < 0.001 and ****p < 0.0001) was determined using one-way ANOVA with Dunnett’s multiple comparison test.

For series [3], the target named is T1, TNF. The series can be described thus: Human TNF induced neutrophil recruitment in vivo. The arrangement: stabilise an asymmetrical form of the soluble TNF trimer. Conditions: for CD45+ GR-1+ cells/mL in the peritoneal cavity: human TNF, individual mice. Here is the method:
All in vivo studies were reviewed by an internal Ethical Review Body (ERB) and conducted in accordance with the Animals (Scientific Procedures) Act 1986, EU Directive 2010/63/EU. […] Anti-TNFα biologics, CDP571[21] (10 mg/kg) and etanercept (30 mg/kg), diluted in PBS, were dosed intravenously prior to human and mouse TNF challenge. Two hours after the TNF challenge, mice were sacrificed and the peritoneal cavity lavaged with 3 mL of FACS buffer. An aliquot (0.3 mL) of lavage fluid was used to assess the number CD45^+GR1^+ cells by flow cytometry. Briefly, the cells were treated with ACK lysis buffer, washed and suspended in FACS buffer prior to staining with FITC anti-mouse CD45 and PE anti-mouse GR1. Data are shown as mean ± standard error of the number of CD45^+GR-1^+ cells. Statistical significance (*p < 0.05, **p < 0.01, ****p < 0.0001) was determined using one-way ANOVA with Dunnett’s multiple comparison test.

Series [4] deals with NF-κB stimulated by the TNFR1 agonist antibody. The series can be described thus: HEK-293 reporter gene assay, anti-TNFR1 agonist antibody stimulus. It is filed as cell-based, human. The conditions noted are these: agonist antibody 0.3 μg/mL; compound up to 10 µM. Here is the method:
Stimulation of HEK-293 cells by TNF leads to activation of the NF-κB pathway. The HEK-Blue^TM CD40L SEAP (secreted embryonic alkaline phosphatase) reporter cell line used to determine TNF activity (InvivoGen, #hkb-CD40, cells were described as mycoplasma free when purchased and were tested using Mycoalert [Lonza] after each batch of assay vial preparation). Compounds were titrated in DMSO and pre-incubated with TNF at a concentration giving half maximal response (10 pM for human or 20 pM for mouse) or the anti-human TNFR1 agonist antibody (R&D Systems. #AF 225) for 1 h. Cells were added to the compound/stimulus mixture and further incubated for 18 h. SEAP was measured using the colorimetric substrate HEK-Blue Detect^TM or QUANTI-Blue^TM from InvivoGen. Percentage inhibitions for compound dilutions were calculated between a DMSO control and maximum inhibition (by excess anti-TNF biologic, or NF-κB inhibitor–TPCA-1 [Tocris #2559, R&D Systems]). The IC50 was determined as the point of inflexion between the fitted minimum and maximum of the compound dose response curve, calculated using 4PL fitted curve. Mean IC50s are reported as a mean of at least two experiments. Dose response curves for TNF and the anti-human TNFR1 agonist antibody are shown in Supplementary Fig. 9.
For orientation: Reporter assays use an easily measured gene product as a stand-in for the process of interest.

The next series concerns human TNF superfamily. The series is described as follows: Thermal denaturation, human TNF superfamily. It is filed as binding. Conditions: 100 µM compound, 0.1 mg/mL sample; single experiment. The method, then:
A fluorescence probed thermal denaturation assay was performed to assess the effect of the compounds on the thermal stability of TNF (or other members of the TNF family) as a measure of compound binding. The reaction mixture contained 5 µL of 30× SYPRO® Orange dye (Invitrogen) and 5 µL of TNF (at 1 mg/mL), 37.5 μL PBS, pH 7.4 and 2.5 μL of compound (at 2 mM in DMSO). The mixture (10 µL) was dispensed in quadruplicate into a 384 PCR optical well plate and was run on a 7900HT Fast Real-Time PCR System ([…]). The PCR System heating device was set at 20 °C to 99 °C with a ramp rate of 1.1 °C min^−1; fluorescence changes in the wells were monitored by a CCD device. The fluorescence intensity increase was plotted as a function of temperature and the Tm calculated as the midpoint of this denaturation curve (determined as the point of inflection).
Compound based thermal stability increase (oC)
100 µM compound 0.1 mg/mL sample […]
compared to human TNF. Human proteins were provided through a collaboration with Beryllium. Data from a single experiment. […]
compared to mouse TNF. Mouse proteins were purchased from R&D Systems. (Note: No Tm for Lymphotoxin (LTa) was detected in this assay making a change in Tm unmeasurable).
Data from a single experiment.
(also on this page, place not known: 16.0Thermal 10Thermal stability difference (oC) stability increase (oC))

Series [5] is described as follows: Dynamic light scattering (colloidal aggregation). It is filed as physicochemical. Conditions: 10 μM; no detergent; 25°C; n=5. Here is the method: Dynamic light scattering (DLS) experiments have been performed with compounds […]
baseline control and positive control (miconazole at 100 μM) were included. The radius data […]
compound in the absence of detergent.
DLS data (Malvern Nano ZS). Each sample (150 μl) was measured 5 times in a low volume disposable sizing cuvette at 25°C using 173º non-invasive backscatter (NIBS). […]

T1 sequence (P01375 77-233 limits assumed): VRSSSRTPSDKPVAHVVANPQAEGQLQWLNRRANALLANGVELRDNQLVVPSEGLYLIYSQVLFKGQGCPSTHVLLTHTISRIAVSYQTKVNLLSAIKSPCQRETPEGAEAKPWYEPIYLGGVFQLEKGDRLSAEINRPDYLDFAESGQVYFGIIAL

Consider `Cc1ccc(C)c(Cn2c(C(O)c3ccncc3)nc3ccc(-c4cnn(C)c4)cc32)c1` (centres unmarked) [UCB-9260], for which the “effect of non-ionic detergents on binding to human TNF” value at TNF [1] is reported as “does not alter the binding”. The “percent over bar (inhibition of zymosan-induced neutrophil recruitment)” value in series [2] (10 mg/kg p.o., 4 hours, mean ± s.e.) amounted to 11±14%; in series [2] (30 mg/kg p.o.) it was 10±16%; in series [2] (100 mg/kg p.o.) it was 51±10%; in series [2] (300 mg/kg p.o.), 64±4%. In addition, the “CD45+ GR-1+ cells/mL in the peritoneal cavity” value in series [2] (10mg/kg) is 195599.4 cells/mL and 255505.0 cells/mL and 196418.3 cells/mL and 192743.4 cells/mL and 219374.0 cells/mL and 134444.4 cells/mL and 127176.3 cells/mL and 228610.3 cells/mL; in series [2] (30mg/kg), 308000.0 cells/mL and 169293.1 cells/mL and 102620.5 cells/mL and 226129.3 cells/mL and 167710.1 cells/mL and 175546.4 cells/mL and 66491.2 cells/mL and 345608.1 cells/mL; in series [2] (100mg/kg) it was 80477.6 cells/mL and 108548.6 cells/mL and 137240.9 cells/mL and 57696.4 cells/mL and 231185.2 cells/mL and 83347.1 cells/mL and 39698.9 cells/mL and 112119.6 cells/mL; in series [2] (300mg/kg), 106121.8 cells/mL and 78357.0 cells/mL and 70745.1 cells/mL and 93070.9 cells/mL and 117333.3 cells/mL and 57439.3 cells/mL and 69649.3 cells/mL and 44069.8 cells/mL; at TNF [3] (10mg/kg), 80382.4 cells/mL and 68398.8 cells/mL and 97517.0 cells/mL and 65083.3 cells/mL and 43379.0 cells/mL and 51529.8 cells/mL; on TNF [3] (30mg/kg), 12661.4 cells/mL and 54428.1 cells/mL and 25233.7 cells/mL and 91899.5 cells/mL and 50362.8 cells/mL and 37741.7 cells/mL. Also, the “CD45+ GR-1+ cells/mL in the peritoneal cavity” value is 14437.1 cells/mL and 19826.5 cells/mL and 38381.4 cells/mL and 4238.2 cells/mL and 19466.7 cells/mL and 51556.6 cells/mL and 16326.3 cells/mL and 11513.0 cells/mL on TNF [3] (100mg/kg); 3894.3 cells/mL and 4438.0 cells/mL and 8909.7 cells/mL and 7748.4 cells/mL and 19700.6 cells/mL and 11113.9 cells/mL at TNF [3] (300mg/kg). Moreover, on TNF [3] (oral, human TNF i.p., CD45+GR1+ cells), the “dose with significant inhibition of neutrophil recruitment” value is recorded as 30 mg/kg. In series [4], the “inhibition of NF-κB stimulated by TNFR1 agonist antibody” value is given as “no inhibition”. In addition, in the series with human TNF superfamily, the “change in Tm of other human TNF superfamily members” value is recorded as “negligible effect; also recorded: No other protein tested showed a significant change in Tm”. Besides, in series [5], the “colloidal aggregation (DLS radius)” value is “no evidence of colloidal aggregation”.
